Measurements reported in patent US11672792B2, “Topical formulations comprising montelukast and combinations with mussel adhesive proteins” (ENLITISA (SHANGHAI) PHARMACEUTICAL CO., LTD, priority 2017, dated 2023).
Like-named read-outs stand apart in the source and are kept apart here.

Assays:
[1] = tested on: carrageenan-induced acute inflammation in subcutaneous air pouch; experiment: Air Pouch Model I (Example 1); assay type: in vivo, C57BL/6 mice; set-up: Activity score / Edema Score / Sum (of histology scores) / Fibroplastic proliferation score / Inflammation score: scale not given here; conditions: MAP 1.5 mg, Mon 200 μg; for IFN-γ in exudate (ELISA) / IL-6 in exudate (ELISA) / IL-10 in exudate (ELISA) / TNF-α in exudate (ELISA) / Activity score / Edema Score / Fibroplastic proliferation score / Inflammation score / Sum (of histology scores): dexamethasone 200 μg; for Leukocyte count in exudate / Lymphocyte count in exudate / Monocyte count in exudate / Neutrophil count in exudate / Exudate volume / Pouch Wall Weight: doses/mouse: dexamethasone 200 μg; for Exudate volume / Pouch Wall Weight: 24 h after carrageenan; for Activity score / Edema Score / Fibroplastic proliferation score / Inflammation score / Sum (of histology scores): pouch wall histology
Description: Healthy adult male C57BL/6 mice weighing between 20 and 30 g were supplied by Changzhou Cvens Experimental Animal Co. Ltd (Changzhou, Jiangsu Province, China). Prior to any experiments being conducted, mice were housed under standardized conditions (at a constant temperature or 22 t 2° C., with alternating 12 hour periods of light and darkness), and were fed on a standard mouse diet with water, for about a week.
General anesthesia was induced using intraperitoneal 3% chloral hydrate (Sinopharm Chemical Reagent Co., Ltd., Shanghai, China); 1 mL/10 g of body weight). The hair of the entire dorsum was shaved and depilated 1 day before sterile air injection.
Air pouches were produced by subcutaneous injection of sterile air (5 mL) into the intrascapular area of the mice. After three days, another injection of air (3 mL) was performed to maintain the pouches. In order to induce acute inflammation, three days after this final injection, animals received an injection of sterile carrageenan solution (CP Kelco, Taixing, Jiangsu Province, China; 1%, 0.5 mL; produced by adding 0.1 g of carrageenan powder into a beaker containing 10 mL of 0.9% saline solution and stirring). Mice were pre-treated with test samples or vehicle 1 hour before and 23 hours after the carrageenan injection into the subcutaneous air pouch. Animals were sacrificed 24 hours after the carrageenan injection.
Skin biopsies were taken from the air pouches. A part of the biopsy was fixed in formalin (produced by adding ultra pure water to 50 mL of a 40% formaldehyde solution (Nanchang Rain Dew Experimental Equipment Co., Ltd., Nanchang, […] Provence, China) up to a total volume of 500 mL) and analyzed by histological embedding in paraffin wax, sectioning and staining.
The cavity was washed with 4 mL of sterile phosphate buffer solution (pH 7.4; prepared by dissolving 4 g of NaCl, 0.1 g of KCl, 1.749 g of Na2HPO4.12H2O and 0.1 g of KH2PO4 in ultrapure water, adjusting the pH to 7.4 with HCl and diluting with water to a total volume of 500 mL).
Exudates were collected and volumes were quantified. The total number of cells was determined with a haematocytometer (ADVIA 2120 Hematology System, Siemens Healthineers).
In Table 1, MAP is a Mefp-1 solution, which is was prepared as follows. Blue mussels were harvested in the coastal area of Shandong Province, China. Mussel feet were collected, cut into small pieces and homogenized in an extraction buffer comprising 5% acetic acid in 4 mol/L of aqueous urea. The crude extracts were collected after centrifuging and then purified by liquid chromatography. […] The solutions that were employed below were prepared by adding saline solution to this semi-finished product to obtain a concentration as described in Table 1.

[2] = tested on: carrageenan-induced acute inflammation in subcutaneous air pouch; experiment: Air Pouch Model II (Example 2); assay type: in vivo, mice; set-up: Fibroplastic proliferation score / Inflammation score / Activity score / Edema Score / Sum (of histology scores): scale not given here; conditions: Dopamine 2 mg, MAP 250 μg, Mon 100 μg
Description: In Table 6, “Dex” is an abbreviation for dexamethasone and “Dopamine” is a 4 mg/mL aqueous solution of dopamine hydrochloride (Shanghai Aladdin Bio-Chem Technology Co., Ltd., Shanghai, China).
The histological specimens were analysed and an inflammation score, an activity score and a fibroplastic proliferation score were estimated as in Example 1 above and are tabulated in Table 9 below.

[3] = tested on: carrageenan-induced acute inflammation in subcutaneous air pouch; experiment: Air Pouch Model: Topical Administration Versus Oral Administration (Example 4); conditions: 200 μg/mouse, Mon-O intragastric; for Exudate volume / Pouch Wall Weight: others injected into pouch; for Activity score / Edema Score / IFN-γ in exudate (ELISA) / IL-6 in exudate (ELISA) / Inflammation score / Leukocyte count in exudate / Sum (of histology scores) / TNF-α in exudate (ELISA): others into pouch
[4] = pH and stability of montelukast formulations; conditions: PEG-based creams or ointments; not prone to oxidation
[5] = in vivo; conditions: Sprague Dawley, rat, skin (unscalded intact, full thickness), topical, 1 g montelukast cream
[6] = for Montelukast amount in skin sample: unscalded intact skin

C[C@@H]1C[C@H]2[C@@H]3CCC4=CC(=O)C=C[C@]4(C)[C@@]3(F)[C@@H](O)C[C@]2(C)[C@@]1(O)C(=O)CO [Dexamethasone, dexamethasone]
IFN-γ in exudate (ELISA) [1]: 2879 ± 1267
IL-6 in exudate (ELISA) [1]: 3649 ± 1764
IL-10 in exudate (ELISA) [1]: 52.33 ± 11.60
TNF-α in exudate (ELISA) [1]: 71.31 ± 111.19
Leukocyte count in exudate [1]: 2.48e+08 mL⁻¹
Lymphocyte count in exudate [1]: 2.08e+08 mL⁻¹
Monocyte count in exudate [1]: 5e+06 mL⁻¹
Neutrophil count in exudate [1]: 2.2e+07 mL⁻¹
Exudate volume [1]: 3.60 ± 0.14 mL
Pouch Wall Weight [1]: 0.72 ± 0.09 g
Activity score [1]: 0.83
Edema Score [1]: 1.67
Fibroplastic proliferation score [1]: 0.00
Inflammation score [1]: 1.50
Sum (of histology scores) [1]: 4.00
Activity score ([2]; Dex 400 μg): 0.33
Edema Score ([2]; Dex 400 μg): 0.83
Fibroplastic proliferation score ([2]; Dex 400 μg): 0.00
IFN-γ in exudate (ELISA) ([2]; Dex 400 μg): 238.91 ± 272.27
IL-6 in exudate (ELISA) ([2]; Dex 400 μg): 3697.30 ± 5112.52
Inflammation score ([2]; Dex 400 μg): 0.83
Leukocyte count in exudate ([2]; Dex 400 μg): 880000 mL⁻¹
Lymphocyte count in exudate ([2]; Dex 400 μg): 30000 mL⁻¹
Monocyte count in exudate ([2]; Dex 400 μg): 670000 mL⁻¹
Neutrophil count in exudate ([2]; Dex 400 μg): 130000 mL⁻¹
Sum (of histology scores) ([2]; Dex 400 μg): 2.00
Exudate volume ([2]; doses/mouse: Dex 400 μg): 2.87 ± 0.06 mL
Pouch Wall Weight ([2]; doses/mouse: Dex 400 μg): 0.45 ± 0.01 g
Exudate volume [3]: 3.3 ± 0.15 mL
Pouch Wall Weight [3]: 0.63 ± 0.09 g
Activity score [3]: 0.67
Edema Score [3]: 1.67
IFN-γ in exudate (ELISA) [3]: 388.83 ± 130.02
IL-6 in exudate (ELISA) [3]: 428.05 ± 267.27
Inflammation score [3]: 1.83
Leukocyte count in exudate [3]: 3.49e+06 mL⁻¹
Sum (of histology scores) [3]: 4.17
TNF-α in exudate (ELISA) [3]: 65.08 ± 7.70

CC(C)(O)c1ccccc1CC[C@@H](SCC1(CC(=O)O)CC1)c1cccc(/C=C/c2ccc3ccc(Cl)cc3n2)c1 [Mon, Montelukast sodium]
stability of formulation (in words) [4]: surprisingly stable
IFN-γ in exudate (ELISA) ([1]; listed as Mon (oral)): 2495 ± 711
IL-6 in exudate (ELISA) ([1]; listed as Mon (oral)): 8453 ± 9758
IL-10 in exudate (ELISA) ([1]; listed as Mon (oral)): 52.59 ± 7.22
TNF-α in exudate (ELISA) ([1]; listed as Mon (oral)): 39.41 ± 17.62
IFN-γ in exudate (ELISA) ([1]; listed as Mon (topical)): 1690 ± 725
IL-6 in exudate (ELISA) ([1]; listed as Mon (topical)): 2528 ± 1538
IL-10 in exudate (ELISA) ([1]; listed as Mon (topical)): 68.18 ± 15.81
TNF-α in exudate (ELISA) ([1]; listed as Mon (topical)): 90.73 ± 109.02
Exudate volume ([1]; listed as Mon (oral)): 3.58 ± 0.15 mL
Pouch Wall Weight ([1]; listed as Mon (oral)): 0.67 ± 0.10 g
Exudate volume ([1]; listed as Mon (topical)): 3.68 ± 0.15 mL
Pouch Wall Weight ([1]; listed as Mon (topical)): 0.66 ± 0.13 g
Leukocyte count in exudate ([1]; listed as Mon (oral)): 2.38e+08 mL⁻¹
Lymphocyte count in exudate ([1]; listed as Mon (oral)): 1.98e+08 mL⁻¹
Monocyte count in exudate ([1]; listed as Mon (oral)): 7e+06 mL⁻¹
Neutrophil count in exudate ([1]; listed as Mon (oral)): 2.1e+07 mL⁻¹
Leukocyte count in exudate ([1]; listed as Mon (topical)): 3.82e+08 mL⁻¹
Lymphocyte count in exudate ([1]; listed as Mon (topical)): 3.22e+08 mL⁻¹
Monocyte count in exudate ([1]; listed as Mon (topical)): 1.7e+07 mL⁻¹
Neutrophil count in exudate ([1]; listed as Mon (topical)): 2.9e+07 mL⁻¹
Activity score [1]: 1.00
Edema Score ([1]; listed as Mon (oral)): 1.00
Fibroplastic proliferation score ([1]; listed as Mon (oral)): 0.33
Sum (of histology scores) ([1]; listed as Mon (oral)): 4.17
Fibroplastic proliferation score ([1]; listed as Mon (topical)): 0.83
Inflammation score ([1]; listed as Mon (topical)): 2.17
Sum (of histology scores) ([1]; listed as Mon (topical)): 5.50
Fibroplastic proliferation score ([2]; Dex 400 μg): 0.00
concentration at 0 h [5]: 0 ng/g
concentration at 1 h [5]: 36700 ng/g
concentration at 2 h [5]: 68000 ng/g
concentration at 3 h [5]: 13400 ng/g
concentration at 6 h [5]: 15600 ng/g
concentration at 8 h [5]: 55300 ng/g
Exudate volume ([3]; listed as Mon-O): 3.69 ± 0.14 mL
Pouch Wall Weight ([3]; listed as Mon-O): 0.68 ± 0.08 g
Exudate volume ([3]; listed as Mon-T): 3.54 ± 0.09 mL
Pouch Wall Weight ([3]; listed as Mon-T): 0.65 ± 0.06 g
Activity score ([3]; listed as Mon-O): 1.67
Edema Score ([3]; listed as Mon-O): 2.17
IFN-γ in exudate (ELISA) ([3]; listed as Mon-O): 557.95 ± 231.86
IL-6 in exudate (ELISA) ([3]; listed as Mon-O): 500.25 ± 292.84
Inflammation score ([3]; listed as Mon-O): 2.33
Leukocyte count in exudate ([3]; listed as Mon-O): 2.66e+06 mL⁻¹
Sum (of histology scores) ([3]; listed as Mon-O): 6.17
TNF-α in exudate (ELISA) ([3]; listed as Mon-O): 146.3 ± 70.74
Activity score ([3]; listed as Mon-T): 1.00
IFN-γ in exudate (ELISA) ([3]; listed as Mon-T): 568.19 ± 316.70
IL-6 in exudate (ELISA) ([3]; listed as Mon-T): 312.05 ± 189.23
Inflammation score ([3]; listed as Mon-T): 2.00
Leukocyte count in exudate ([3]; listed as Mon-T): 2.19e+06 mL⁻¹
TNF-α in exudate (ELISA) ([3]; listed as Mon-T): 80.37 ± 61.72
Montelukast amount in skin sample ([6]; 0 h, 1 g montelukast cream topically): 0 g
Montelukast amount in skin sample ([6]; 1 h): 2.53 g
Montelukast amount in skin sample ([6]; 2 h): 5.44 g
Montelukast amount in skin sample ([6]; 3 h): 0.89 g
Montelukast amount in skin sample ([6]; 6 h): 0.90 g
Montelukast amount in skin sample ([6]; 8 h): 3.54 g
time of montelukast peak in skin ([6]; scalded skin): 2 h
